Data reported in EPA's ToxRefDB 2.

Tests used:
rat [1] = details: Multigenerational reproductive toxicity study, sprague dawley, Oral, Gavage/Intubation, dose end: 2 generation
rat [2] = details: Prenatal developmental toxicity study, other, Oral, Gavage/Intubation, dose end: 19 GD
mouse = details: Prenatal developmental toxicity study, cd1, Oral, Gavage/Intubation, dose end: 17 GD
rat [3] = details: Multigenerational reproductive toxicity study, wistar, Oral, Gavage/Intubation, dose end: 2 generation
rat [4] = details: Multigenerational reproductive toxicity study, sprague dawley, Oral, Feed, dose end: 2 generation
rat [5] = details: Multigenerational reproductive toxicity study, sprague dawley, Oral, Feed, dose end: 2 generation; remark: listed apart in the source
rat [6] = details: Prenatal developmental toxicity study, sprague dawley, Oral, Gavage/Intubation, dose end: 15 GD
[7] = group: offspring, developmental / offspring survival late / viability index / viability index + systemic / in life observation / body weight / offspring (pup…
[8] = group: parental, systemic / pathology microscopic / liver / hypertrophy + systemic / pathology microscopic / kidney / regeneration + systemic / organ weight…
[9] = group: parental, systemic / pathology microscopic / liver / hypertrophy + systemic / pathology microscopic / kidney / regeneration + systemic / pathology …
[10] = group: developmental, developmental / developmental malformation / bone / [other] + developmental / developmental malformation / bone / bipartite ossification + …
[11] = group: maternal, systemic / in life observation / body weight / body weight gain + systemic / in life observation / food consumption / food efficiency
[12] = group: developmental, developmental / developmental malformation / bone / supernumerary + systemic / in life observation / body weight / fetal weight
[13] = group: maternal, systemic / in life observation / body weight / body weight + systemic / in life observation / body weight / body weight gain + systemic / …
[14] = group: offspring, developmental / offspring survival late / lactation index / lactation index
[15] = group: parental, systemic / in life observation / body weight / body weight + systemic / in life observation / clinical signs / poor general condition
[16] = group: offspring, systemic / organ weight / kidney / absolute + systemic / organ weight / liver / absolute + systemic / pathology gross / kidney / enlarged + …
[17] = group: parental, systemic / organ weight / liver / absolute + systemic / organ weight / kidney / absolute
[18] = group: reproductive, reproductive / offspring survival early / birth index / live birth index
[19] = group: offspring, developmental / offspring survival late / viability index / viability index + developmental / developmental landmark / anogenital distance (…
[20] = group: offspring, systemic / organ weight / kidney / absolute + systemic / organ weight / liver / absolute + systemic / pathology microscopic / liver / …
[21] = group: parental, systemic / in life observation / body weight / body weight + systemic / organ weight / kidney / absolute + systemic / organ weight / liver…
[22] = group: parental, systemic / organ weight / liver / absolute + systemic / pathology microscopic / liver / hypertrophy + systemic / organ weight / kidney / …
[23] = group: developmental, developmental / developmental malformation / bone / incomplete ossification + developmental / developmental malformation / bone / …
[24] = group: maternal, systemic / in life observation / body weight / body weight gain + systemic / in life observation / food consumption / food consumption

CCN(CC)C(=O)SCc1ccc(Cl)cc1 [Thiobencarb]
LEL (rat [1]; [7]): 100 mg/kg/day | LOAEL (rat [1]; [7]): > 100 mg/kg/day | NEL (rat [1]; [7]): 20 mg/kg/day | NOAEL (rat [1]; [7]): ≥ 100 mg/kg/day | LEL (rat [1]; [8]): 2 mg/kg/day | NEL (rat [1]; [8]): < 2 mg/kg/day | LOAEL (rat [1]; [9]): 2 mg/kg/day | NOAEL (rat [1]; [9]): < 2 mg/kg/day | LEL (rat [2]; [10]): 150 mg/kg/day | LOAEL (rat [2]; [10]): 150 mg/kg/day | NEL (rat [2]; [10]): 25 mg/kg/day | NOAEL (rat [2]; [10]): 25 mg/kg/day | LEL (rat [2]; [11]): 150 mg/kg/day | LOAEL (rat [2]; [11]): 150 mg/kg/day | NEL (rat [2]; [11]): 25 mg/kg/day | NOAEL (rat [2]; [11]): 25 mg/kg/day

C=CC(=O)NCNC(=O)C=C [N,N'-Methylenebisacrylamide]
LEL (mouse; group: developmental, developmental / developmental malformation / bone / supernumerary): 10 mg/kg/day | LOAEL (mouse; [12]): > 30 mg/kg/day | NEL (mouse; [12]): 3 mg/kg/day | NOAEL (mouse; [12]): ≥ 30 mg/kg/day | LOAEL (mouse; [13]): > 30 mg/kg/day | NEL (mouse; [13]): 3 mg/kg/day | NOAEL (mouse; [13]): ≥ 30 mg/kg/day | LEL (mouse; group: maternal, systemic / in life observation / body weight / body weight + systemic / organ weight / liver / relative to body weight + systemic / organ …): 10 mg/kg/day

N#Cc1ccc(CC(=NNC(=O)Nc2ccc(OC(F)(F)F)cc2)c2cccc(C(F)(F)F)c2)cc1 (mixture of isomers) [Metaflumizone]
LEL (rat [3]; [14]): 50 mg/kg/day | LOAEL (rat [3]; [14]): 50 mg/kg/day | NEL (rat [3]; [14]): 20 mg/kg/day | NOAEL (rat [3]; [14]): 20 mg/kg/day | LEL (rat [3]; [15]): 50 mg/kg/day | LOAEL (rat [3]; [15]): 50 mg/kg/day | NEL (rat [3]; [15]): 20 mg/kg/day | NOAEL (rat [3]; [15]): 20 mg/kg/day

CC(C)CCCCCCCOC(=O)c1ccccc1C(=O)OCCCCCCCC(C)C [Diisodecyl phthalate]
LEL (rat [4]; [16]): 100 mg/kg/day | LOAEL (rat [4]; [16]): > 200 mg/kg/day | NEL (rat [4]; [16]): 30 mg/kg/day | NOAEL (rat [4]; [16]): ≥ 200 mg/kg/day | NEL (rat [4]; group: parental, systemic / organ weight / liver / absolute): 100 mg/kg/day | LEL (rat [4]; [17]): 200 mg/kg/day | LOAEL (rat [4]; [17]): > 200 mg/kg/day | NOAEL (rat [4]; [17]): ≥ 200 mg/kg/day | LEL (rat [4]; [18]): 100 mg/kg/day | LOAEL (rat [4]; [18]): > 200 mg/kg/day | NEL (rat [4]; [18]): 30 mg/kg/day | NOAEL (rat [4]; [18]): ≥ 200 mg/kg/day | LOAEL (rat [5]; [19]): > 400 mg/kg/day | NOAEL (rat [5]; [19]): ≥ 400 mg/kg/day | LEL (rat [5]; [20]): 100 mg/kg/day | NEL (rat [5]; [20]): < 100 mg/kg/day | LOAEL (rat [5]; [21]): > 400 mg/kg/day | NOAEL (rat [5]; [21]): ≥ 400 mg/kg/day | LEL (rat [5]; [22]): 100 mg/kg/day | NEL (rat [5]; [22]): < 100 mg/kg/day | LEL (rat [5]; [18]): 100 mg/kg/day | LOAEL (rat [5]; [18]): > 400 mg/kg/day | NEL (rat [5]; [18]): < 100 mg/kg/day | NOAEL (rat [5]; [18]): ≥ 400 mg/kg/day | LEL (rat [6]; [23]): 1000 mg/kg/day | LOAEL (rat [6]; [23]): > 1000 mg/kg/day | NEL (rat [6]; [23]): 500 mg/kg/day | NOAEL (rat [6]; [23]): ≥ 1000 mg/kg/day | LEL (rat [6]; [24]): 1000 mg/kg/day | LOAEL (rat [6]; [24]): > 1000 mg/kg/day | NEL (rat [6]; [24]): 500 mg/kg/day | NOAEL (rat [6]; [24]): ≥ 1000 mg/kg/day
